The nature of data set [1]: Degradation of apelin peptides by plasma from fasted normal NIH Swiss mice (rp-HPLC, MALDI-TOF MS). Type of data set: in vitro ADME. The procedure:
Degradation of Apelin Peptides by Plasma from Fasted Normal NIH Swiss Mice […] The enzymatic reaction was stopped by adding 50 μl of 10% TFA (0.1% v/v; Sigma-Aldrich Ltd, (Poole, Dorset, UK) and frozen at -20° C. until separation. The terminated reaction products were then applied to an analytical Vydac C-8 column (4.6×150 mm; Phenomenex, Macclesfield, Cheshire, UK) for rp-HPLC analysis. The absorbance was monitored at 214 nm using a […] UV 2000 detector (Thermoquest Limited, Manchester, UK) and the traces were recorded by Thermo Electron ChromQuest data collection software (version 4). HPLC peak fractions were collected manually and subjected to MALDI-TOF mass spectrometry for peptide identification. Degradation profile of various apelin-13 related analogues: plasma incubations (4 h) were separated on a Vydac C-8 analytical HPLC column and all peaks were collected prior to analysis by MALDI-TOF mass spectrometry. Degradation fragments, actual molecular weights (Mr) and retention times (RT) are shown. Theoretical molecular weights of each fragment are shown in brackets. […] Degradation fragments, theoretical molecular weights (Mr) and retention times (RT) are shown. Theoretical molecular weights of each fragment are shown in brackets.

For data set [2], the system named is NIH Swiss mice fed a high-fat diet for 150 days. Briefly: Acute and delayed i.p. glucose tolerance test, blood glucose and plasma insulin. The format is in vivo. Here is the method:
Plasma glucose and plasma insulin concentrations were measured prior to and after i.p. administration of glucose alone (18 mmol/kg body weight), or in combination with apelin analogues (25 nmol/kg body weight) in 18 h fasted mice fed a high-fat diet for 150 days. Values represent mean±SEM for eight mice (n=8). *P<0.05, **P<0.01 and ***P<0.001 compared to glucose alone. FIG. 6 illustrates effect of i.p. administration of glucose alone (18 mmol/kg body weight), ([…])apelin-13 and ([…])apelin-13 alone or in combination (each 25 nmol/kg body weight) on (A) blood glucose and (B) plasma insulin in 18 h fasted mice fed a high-fat diet for 150 days. Values represent mean±SEM for eight mice (n=8). *p<0.05 and **p<0.01 compared to glucose alone, ^+P<0.05 compared to ([…])apelin-13, ^∇P<0.05 and ^∇∇P<0.01 compared to ([…])apelin-13. FIG. 10 illustrates tests conducted 2 h after administration of apelin related analogues (25 nmol/kg body wt) in 18 h fasted mice fed a high-fat diet for 150 days. (A) Blood glucose and (B) plasma insulin was measured before and after i.p. administration of glucose (18 mmol/kg body wt) alone or in combination with apelin analogues. Values represent mean±SEM for eight mice (n=8). *P<0.05 and **P<0.01 compared to glucose alone. FIG. 11 illustrates tests conducted 8 h after administration of apelin related analogues (25 nmol/kg body wt) in 18 h fasted mice fed a high-fat diet for 150 days. (A) Blood glucose and (B) plasma insulin was measured before and after i.p. administration of glucose (18 mmol/kg body wt) alone or in combination with apelin analogues. Values represent mean±SEM for eight mice (n=8). *P<0.05 and **P<0.01 compared to glucose alone. FIG. 12 illustrates acute effects of fatty acid modified apelin analogues on glucose-lowering and insulin release in high fat fed Swiss NIH mice with dietary-induced diabetes. (A) Blood glucose and (B) plasma insulin concentrations were measured prior to and after i.p. administration of glucose alone (18 mmol/kg body weight), or in combination with apelin analogues (25 nmol/kg body weight) in 18 h fasted mice fed a high-fat diet for 150 days. Values represent mean±SEM for eight mice (n=8). *P<0.05, compared to glucose alone. FIG. 13 illustrates tests conducted 16 h after administration of fatty acid apelin analogues (25 nmol/kg body wt) in mice fed a high-fat diet for 150 days. (A) Blood glucose and (B) plasma insulin was measured before and after i.p. administration of glucose (18 mmol/kg body wt) alone or in combination with apelin analogues. Values represent mean±SEM for eight mice (n=8). *P<0.05, **P<0.01 and ***P<0.001 compared to glucose alone. NIH Swiss mice (Harlan UK Ltd., Blackthorne, UK) were derived from a nucleus colony obtained from the National Institute of Health, Bethesda, Md., USA. One group of mice were maintained on a standard rodent diet (10% fat, 30% protein, 60% carbohydrate; percent of total energy 12.99 kJ/g, Trouw Nutrition, Cheshire, UK) and used as a model of normal glycaemia. Other NIH Swiss mice were maintained on a high fat diet (45% fat, 20% protein, 35% carbohydrate; percent of total energy 26.15 […], UK) from 8 weeks of age for 150 days to produce a model of diet induced obesity-diabetes. […] All mice were housed in an air-conditioned room maintained at 22±2° C. with a 12 h light: 12 h dark cycle (08:00-20:00 h), were singly caged, and selected for experimental groups according to body weight and non-fasted blood glucose. Drinking water and diet were freely available. All animal studies were performed in accordance with the UK Animals (Scientific Procedures) Act 1986. For acute in vivo studies, blood samples were collected from the cut tip of the tail vain of fasted, conscious mice into fluoride/heparin coated glucose microcentrifuge tubes (Sarstedt, Germany) immediately prior to (t=0) and at 15, 30, 60 and 105 min following i.p. injection of glucose ([…]).

Data set [3] concerns high fat fed NIH Swiss mice. Briefly: 28 day long-term study of fatty acid apelin analogues, once daily i.p. administration. Type of data set: in vivo. An excerpt: NIH Swiss mice (Harlan UK Ltd., Blackthorne, UK) were derived from a nucleus colony obtained from the National Institute of Health, Bethesda, Md., USA. One group of mice were maintained on a standard rodent diet (10% fat, 30% protein, 60% carbohydrate; percent of total energy 12.99 kJ/g, Trouw Nutrition, Cheshire, UK) and used as a model of normal glycaemia. Other NIH Swiss mice were maintained on a high fat diet (45% fat, 20% protein, 35% carbohydrate; percent of total energy 26.15 kJ/g; Dietex, Essex, UK) from 8 weeks of age for 150 days to produce a model of diet induced obesity-diabetes. […] All mice were housed in an air-conditioned room maintained at 22±2° C. with a 12 h light: 12 h dark cycle (08:00-20:00 h), were singly caged, and selected for experimental groups according to body weight and non-fasted blood glucose. Drinking water and diet were freely available. All animal studies were performed in accordance with the UK Animals (Scientific Procedures) Act 1986.
For another 28 day long-term study of selected fatty acid apelin analogues administered once daily, normal control NIH Swiss (n=8) and high-fat fed NIH Swiss (n=8) were grouped and received once daily i.p. injections of saline vehicle (0.9% NaCl (w/v)) at 17:00 h over a 4 day run-in period. Following the run-in period, normal control (n=8) and high-fat fed mice (n=8) received once daily (17:00 h) i.p. administration of saline vehicle (0.9% NaCl (w/v)) for 28 days. Additional groups of high-fat fed mice (n=8) received once daily i.p. injections of (Lys^8gluPal)apelin-13-amide, pGlu(Lys^8gluPal)apelin-13-amide or liraglutide (each at 25 nmol/kg bw) over a 28 day treatment period.
Food intake, body weight, blood glucose and plasma insulin were monitored at intervals of 2-3 days throughout the run-in and 28 day treatment period. Blood samples for glucose and plasma insulin measurement were collected at intervals throughout the study from the cut tail vein of conscious mice. Following the 28 day treatment period, oral, i.p. and meal test glucose tolerance ([…].), and insulin sensitivity (25 U/kg bw) tests were performed. Glucose was measured using an Ascensia Contour meter and blood was collected and processed for plasma insulin analysis by radioimmunoassay. Body weight and fat mass was also assessed using the PIXImus DEXA scanner whilst energy expenditure, intake, food intake and feeding bouts were assessed using the CLAMS metabolic chamber. HbA1c was analysed post 28 days using Bayer A1C Now^+ Multi Test meter. Lipid profile test was obtained by using the iLab analyser. Cholesterol, triglyceride and HDL-cholesterol levels were measured, in plasma (3 μl), using the iLab analyser. LDL-cholesterol levels were obtained using the Friedewald equation=total cholesterol−HDL−(triglycerides/3).

[4] abbreviates: NIH Swiss, mouse, plasma, pH 7.4.
[5] abbreviates: fatty acid derived agonists, 16 h delayed i.p. glucose tolerance test, 25 nmol/kg.
The mark [6] stands for this setting: fatty acid derived agonists, acute i.p. glucose tolerance test, 25 nmol/kg.
Setting [7] is: once daily 25 nmol/kg bw, 28 days.
The mark [8] stands for this setting: acute, peptide 25 nmol/kg i.p. with glucose 18 mmol/kg, Table 4.
The mark [9] stands for this setting: following a 2 h delay, 25 nmol/kg.
Setting [10] is: following a 8 h delay, 25 nmol/kg.

With `CCCCCCCCCCCCCCCC(=O)N[C@@H](CCC(=O)NCCCC[C@H](NC(=O)[C@H](Cc1c[nH]cn1)NC(=O)[C@H](CO)NC(=O)[C@H](CC(C)C)NC(=O)[C@H](CCCNC(=N)N)NC(=O)[C@@H]1CCCN1C(=O)[C@H](CCCNC(=N)N)NC(=O)[C@@H](N)CCC(N)=O)C(=O)NCC(=O)N1CCC[C@H]1C(=O)N[C@@H](CCSC)C(=O)N1CCC[C@H]1C(=O)N[C@@H](Cc1ccccc1)C(N)=O)C(=O)O` [(Lys^8GluPAL)apelin-13-amide], the “Rank order of stability” value in data set [1] is “=1”. Besides, the “Half-life (t1/2)” value in data set [1] (NIH Swiss, mouse, plasma, 263 µg/mL, pH 7.4) is greater than 24 h. Moreover, in data set [1] (setting [4]), the half-life at 263 µg/mL is greater than 24 h and the fraction remaining at 4 h, 263 µg/mL was 100%. In addition, in data set [2] (fatty acid derived agonists, 16 h delay), the “Rank order on basis of anti-hyperglycaemic efficacy” value (“Rank order on basis” below) was determined as 2. Moreover, in data set [2] (setting [5]), the “Blood glucose as percent of glucose-alone control (lower = stronger glucose lowering)” value is given as 61% (**) and the “Insulin secretion, where glucose alone = 100%” value is recorded as 156% (***). In addition, the “Rank order on basis” value in data set [2] (fatty acid derived agonists, acute) is on record as 2. Also, in data set [2] (setting [6]), the “Glucose lowering, where glucose alone = 100%” value turned out to be 85% and the “Insulin secretion, where glucose alone = 100%” value is reported as 110%. In data set [3] (after 28 days, DEXA analysis), this compound registered a Percentage fat mass of 30.8%. In data set [3] (after 28 days, insulin 25 U/kg bw), the Insulin sensitivity result was “significantly improved”. In data set [3] (after the 28 day treatment period), the “Glucose tolerance and plasma insulin excursion in response to an i.p and oral glucose challenge” value is “significantly improved”. In data set [3] (once daily), the “HDL-cholesterol levels compared to the lean control and high fat fed mice” value was “significantly increased”. In data set [3] (setting [7]), the Bodyweight reduction entry was “approximately 4%”; the “Day of study at which bodyweight was significantly decreased” value was 21 days; the “Day of study at which circulating blood glucose began to be significantly reduced and plasma insulin increased” value came to 10 days; the “Day of study at which food intake was significantly reduced” value came out at 8 days. In data set [3] (once daily, Friedewald equation), the “LDL-cholesterol levels compared to the high fat fed controls” value was “significantly lowered”. Besides, in data set [3] (once daily, high-fat fed mice), the Plasma triglyceride levels result is “significantly lower”.

On to `CSCC[C@H](NC(=O)[C@@H]1CCCN1C(=O)CNC(=O)[C@H](CCCCN)NC(=O)[C@H](Cc1c[nH]cn1)NC(=O)[C@H](CO)NC(=O)[C@H](CC(C)C)NC(=O)[C@H](CCCNC(=N)N)NC(=O)[C@@H]1CCCN1C(=O)[C@H](CCCNC(=N)N)NC(=O)[C@@H]1CCC(=O)N1)C(=O)N1CCC[C@H]1C(=O)N[C@@H](Cc1ccc(O)cc1)C(=O)O` [pGlu(Tyr^13)apelin-13, pGlu (Tyr^13)apelin-13], for which, in data set [1], the “Degradation fragment, Peak 1” value was “(1-5)”; the “Degradation fragment, Peak 2” value was “(1-6)”; the “Degradation fragment, Peak 3” value is given as “(1-12)”; the “Rank order of stability” value is given as 4. In data set [1] (setting [4]), this compound showed a half-life at 263 µg/mL of 12.2 h and an amount remaining at 4 h, 263 µg/mL of 79 ± 0.6%. For the same compound, the “Rank order on basis” value in data set [2] (acute, Table 4) was determined as 3. Further, in data set [2] (setting [8]), the “Blood glucose as percent of glucose-alone control (lower = stronger glucose lowering)” value was 71% (*) and the “Insulin secretion, where glucose alone = 100%” value is reported as 138% (**). Also, the “Rank order on basis” value in data set [2] (following a 2 h delay) stood at 3. Also, in data set [2] (setting [9]), the “Blood glucose as percent of glucose-alone control (lower = stronger glucose lowering)” value is 78% (**) and the “Insulin secretion, where glucose alone = 100%” value is listed as 142% (**). In data set [2] (following a 8 h delay), the “Rank order on basis” value amounted to 2. In data set [2] (setting [10]), the “Blood glucose as percent of glucose-alone control (lower = stronger glucose lowering)” value is on record as 86% (*) and the “Insulin secretion, where glucose alone = 100%” value stood at 112%.

With `CSCC[C@H](NC(=O)[C@@H]1CCCN1C(=O)CNC(=O)[C@H](CCCCN)NC(=O)[C@H](Cc1c[nH]cn1)NC(=O)[C@H](CO)NC(=O)[C@H](CC(C)C)NC(=O)[C@H](CCCNC(=N)N)NC(=O)[C@@H]1CCCN1C(=O)[C@H](CCCNC(=N)N)NC(=O)[C@@H]1CCC(=O)N1)C(=O)N1CCC[C@H]1C(=O)N[C@H](C(=O)O)C(C)C` [pGlu(Val^13)apelin-13, pGlu (Val^13)apelin-13], in data set [1], the “Degradation fragment, Peak 1” value was “(1-6)”; the “Degradation fragment, Peak 2” value was “(1-12)”; the “Rank order of stability” value worked out at 9. In data set [1] (setting [4]), this compound showed a half-life at 263 µg/mL of 9.8 h and a fraction remaining at 4 h, 263 µg/mL of 76.2 ± 1.9%. In addition, the “Rank order on basis” value in data set [2] (acute, Table 4) is 8. Further, in data set [2] (setting [8]), the “Blood glucose as percent of glucose-alone control (lower = stronger glucose lowering)” value is 116% (*) and the “Insulin secretion, where glucose alone = 100%” value is 75% (**).

The values are drawn from US10118954B2, “Apelin analogues” (University of Ulster, priority 2014, dated 2018).
